Data as given in patent US20170340588A1, “MODULATION OF REGULATORY T CELLS VIA G-COUPLED PROTEIN RECEPTOR 43” (President and Fellows of Harvard College, priority 2013, published 2017).

Experiments:
Ffar2 = molecular target: T1, Ffar2 (Homo sapiens, UniProt O15552); details: among SCFA; Le Poul et al. 2003; cited from earlier work
T1 sequence (O15552 1-330): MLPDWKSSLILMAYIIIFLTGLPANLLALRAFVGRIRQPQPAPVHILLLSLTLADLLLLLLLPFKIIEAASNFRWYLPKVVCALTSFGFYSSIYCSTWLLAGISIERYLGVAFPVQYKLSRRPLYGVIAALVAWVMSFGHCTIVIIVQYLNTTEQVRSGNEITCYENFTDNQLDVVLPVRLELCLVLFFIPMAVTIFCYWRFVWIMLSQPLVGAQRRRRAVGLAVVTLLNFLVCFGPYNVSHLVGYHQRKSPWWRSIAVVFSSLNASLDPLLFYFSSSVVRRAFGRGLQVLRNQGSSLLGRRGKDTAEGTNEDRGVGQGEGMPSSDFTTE

colonic Treg (cTreg) [1] = test: Antibiotic (vancomycin) treatment of SPF mice with or without SCFA; assay type: in vivo; details: Ffar2-/- vs Ffar2+/+ mice
Procedure: Science 341: 1645 (2013). […] The crude cell suspension was loaded onto a 40%/90% Percoll (GE Healthcare) gradient and centrifuged at 720 x g for 25 min at room temperature with acceleration and brake turned off. LP lymphocytes were collected from the 40%/90% interface. Intracellular staining of the transcription factors Foxp3, Helios and T-bet was performed using the Foxp3 Fix/Perm Buffer Set (Biolegend). For detection of intracellular cytokines, cells were first stimulated for 4 h with 50 ng/ml PMA and 1 μg/ml ionomycin in the presence of Brefeldin A (All obtained from Sigma), followed by staining for surface markers. Cells were then fixed and permeabilized using the Foxp3 Fix/Perm Buffer Set (Biolegend) and stained for intracellular cytokines. The following antibodies were used: […] All antibodies were obtained from Biolegend unless otherwise noted. Flow cytometry was performed using LSRII and data were analyzed with FlowJo software (TreeStar, Inc.). Cell sorting was performed using a […] at the Dana-Farber Cancer Institute Flow Cytometry Core.

HDAC = HDAC expression (RTqPCR) and histone acetylation (Western blot) in cTreg; assay type: cell-based, mice; details: 0.1 mM, 24 hours
Procedure: (§1) Treg were isolated from the colon, small intestine, mesenteric lymph node or spleen of C57BL/6 Foxp3^YFP-Cre mice and FACS-sorted based on expression of YFP. RNA samples were prepared using the RNeasy Mini Kit (Qiagen) and cDNA was synthesized using the Bio-Rad iScript cDNA Synthesis Kit. Real-time (RT)-qPCR was performed using the KAPA SYBR FAST Universal qPCR Kit (KAPA Biosystems) and a Stratagene MX3005P (Agilent Technologies). The following primer sequences were used:
Colonic lamina propria Treg were isolated and whole cell lysates generated using RIPA buffer in the presence of protease inhibitors. Protein lysates were resolved using SDS-PAGE and transferred to PVDF membrane using a Bio-Rad wet transfer apparatus. Blots were probed with antibodies directed against acetyl-histone H3 (K9) and histone H3 (All from Cell Signaling Technologies). After incubation with the appropriate HRP-conjugated antibody, ECL was used for developing. Densitometry analysis of Western blots was performed using Image-J software available on the world wide web at rsbweb.nih.gov/ij/.

colonic Treg (cTreg) [2] = test: Ex vivo RTqPCR of cTreg from in vivo treated mice
Procedure: Science 341: 1645 (2013). […] Treg were isolated from the colon, small intestine, mesenteric lymph node or spleen of C57BL/6 Foxp3^YFP-Cre mice and FACS-sorted based on expression of YFP. […] Real-time (RT)-qPCR was performed using the KAPA SYBR FAST Universal qPCR Kit (KAPA Biosystems) and a Stratagene MX3005P (Agilent Technologies).

[3] = tested on: colonic lamina propria Treg; test: In vitro T cell stimulation of colonic Treg (RTqPCR, ELISA, proliferation); assay type: cell-based, mice
Procedure: as §1
Colonic lamina propria Treg were isolated from C57BL/6 Foxp3^YFP-Cre mice as described above and FACS-sorted based on expression of YFP. Isolated Treg were cultured in RPMI 1640 medium supplemented with 10% FBS (Gibco), 4 mM L-glutamine, 80 U/ml penicillin, 80 μg/ml streptomycin, 1 mM sodium pyruvate, 10 mM HEPES and 1× nonessential amino acids (all obtained from Cellgro). Treg were stimulated with 1 μg/ml anti-CD3 antibody and with or without 0.1 mM sodium propionate for 24 h at 37° C. The division index is calculated by dividing the total number of cell divisions by the number of cells added at the start of the culture and represents the average number of divisions a cell from the original population has undergone and includes the undivided fraction in the calculation.
Cytokines were measured in culture supernatants using standard cytokines, antibodies and protocols. IL-10 was measured using the BD OptEIA ELISA Kit (BD Biosciences) and TGFβ1 levels were measured using the mouse TGF-beta 1 DuoSet (R&D Systems).

[4] = Stability of SCFA mix in mouse water bottle over time; assay type: physicochemical
Procedure: Mice were treated for 21 days with either sodium acetate (150 mM), sodium propionate (150 mM), sodium butyrate (100 mM) or a SCFA mix (67.5 mM acetate, 40 mM Butyrate, 25.9 mM Propionate) in the drinking water. In in vivo drinking water treatment experiments, control mice received pH and sodium-matched water. At the conclusion of the experiment mice were removed from isolators and processed immediately.

T cell transfer colitis = test: T cell transfer model of colitis; assay type: in vivo, mice
Source text: At Day 0, Naive CD4+CD25^−CD45RB^hi splenic T cells were FACS-sorted from BALB/c mice and injected i.p. into 6-8 week old BALB/c RAG2^−/− immunodeficient recipients (5×10^5 cells/mouse). At day 10, BALB/c RAG2^−/− immunodeficient recipients received CD4^+ CD25^+ CD45RB^lo splenic Treg cells (75,000/mouse) isolated from BALB/c or C57BL/6 mice Ffar2^+/+ and Ffar2^−/− mice where indicated. Mice were monitored weekly for weight loss and morbidity for 6-9 weeks as per the protocol's experimental endpoint guidelines.
Colons were excised and cleaned with DPBS prior to fixation in 4% PFA and then processed by routine paraffin embedding, sectioning and H&E staining. Colitis scores were determined by J.N.G., who was blinded to the experimental parameters. Each of 4 histologic parameters were scored as absent (0), mild (1), moderate (2), or severe (3): mononuclear cell infiltraton, polymorphonuclear cell infiltration, epithelial hyperplasia, and epithelial injury. The scores for the parameters were summed to generate the cumulative histologic colitis score as previously described.

[5] = in vivo treated GF and SPF mice

Compound: CCC(=O)O [Propionate, propionic acid]
- affinity for Ffar2 (Ffar2): highest affinity
- restoration of cTreg populations and numbers in the setting of vancomycin treatment (colonic Treg (cTreg) [1]): Ffar2 was necessary
- cTreg expression of HDAC6 and HDAC9 (HDAC; Ffar2+/+): reduced
- cTreg expression of class I HDAC1 and HDAC2 or class IIa HDAC7 (HDAC; Ffar2+/+): did not reduce
- histone acetylation (H3K9) (HDAC; cTreg, required Ffar2): enhanced
- Foxp3 and IL-10 expression in cTreg (colonic Treg (cTreg) [2]; cTreg from GF mice treated in vivo for three weeks): significant increase
- levels of chemokine receptor CCR9 or α4β7 integrin in cTreg (colonic Treg (cTreg) [2]; [5]): not altered
- levels of the cTreg homing receptor GPR15 (colonic Treg (cTreg) [2]; [5]): increase
- Foxp3 and IL-10 expression and IL-10 protein levels ([3]; Ffar2+/+ cTreg, 0.1 mM, 24 hours): enhanced
- cTreg proliferation ([3]; anti-CD3 and IL-2, 0.1 mM propionate): enhanced proliferation
- Foxp3 and IL-10 expression in cTreg ([3]; cTreg from GF mice stimulated 24 hours in vitro, 0.1 mM): significant increase
- IL-10 production ([3]; cTreg from GF mice, in vitro 24 hours, 0.1 mM, ELISA): increased
- Foxp3 expression, IL-10 expression and IL-10 protein production ([3]; cTreg from SPF mice, 24 hours in vitro, 0.1 mM): increases
- SCFA mix in mouse water bottle over time, Input (Day 0) ([4]; Day 0): 200 mM
- SCFA mix in mouse water bottle over time, Day 1 ([4]; Day 1, input 200 mM): 200 mM
- SCFA mix in mouse water bottle over time, Day 4 ([4]; Day 4, input 200 mM): 199.6 mM
- SCFA mix in mouse water bottle over time, Day 7 ([4]; Day 7, input 200 mM): 201.24 mM
- SCFA mix in mouse water bottle over time, Day 10 ([4]; Day 10, input 200 mM): 202.9 mM
- SCFA mix in mouse water bottle over time, Day 14 ([4]; Day 14, input 200 mM): 203.2 mM
- SCFA mix in mouse water bottle over time, Day 90 ([4]; Day 90, input 200 mM): 41.9 mM
- effect on intestinal inflammation (colitis scores) (T cell transfer colitis; Ffar2+/+ or Ffar2-/- Treg transferred): dependent upon Ffar2 expression in Treg
- degrees of colonic crypt injury, inflammation, and hyperplasia (T cell transfer colitis; H&E, compared to control mice): reduced degrees
- frequency and number of colonic LP Foxp3+ Treg (T cell transfer colitis; T cell transfer colitis): increase
- weight loss (T cell transfer colitis; naïve T cells and Treg, vs water alone (P<0.0001)): less severe
- mean colitis score (T cell transfer colitis; naïve T cells and Treg, water alone 5.1±0.6): 2.0±0.6
